Experiment [1] relates to L1210. The experiment in a line: Compound was evaluated for the growth inhibition of mouse L1210 cells. In kind it is functional, cell-based.
Experiment [2] deals with L1210. The experiment in a line: Compound was evaluated for the growth inhibition of mouse L1210 (impaired) cells. It is filed as functional, cell-based.
For another experiment, the system named is L1210 (1565). The experiment is described as follows: Compound was evaluated for the growth inhibition of […]. In kind it is functional, cell-based.
For experiment [3], the target named is T1, Thymidylate synthase (Mus musculus, UniProt P07607). The experiment in a line: Compound was evaluated for the inhibition of Thymidylate synthase.
T1 sequence (P07607 whole entry): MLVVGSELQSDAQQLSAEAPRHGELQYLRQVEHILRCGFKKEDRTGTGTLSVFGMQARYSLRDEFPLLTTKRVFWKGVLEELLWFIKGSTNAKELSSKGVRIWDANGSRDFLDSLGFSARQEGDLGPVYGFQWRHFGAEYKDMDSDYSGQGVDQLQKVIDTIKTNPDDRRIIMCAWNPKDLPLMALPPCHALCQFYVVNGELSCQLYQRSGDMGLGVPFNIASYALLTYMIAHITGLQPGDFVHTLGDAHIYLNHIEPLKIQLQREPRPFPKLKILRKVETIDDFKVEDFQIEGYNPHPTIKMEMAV
The target in experiment [4] is T1, Thymidylate synthase. The experiment is described as follows: Compound was evaluated for the inhibition of Thymidylate synthase in experiment 2.
Experiment [5] concerns L1210. The experiment is described as follows: Compound was evaluated for the growth inhibition of mouse L1210 cells in experiment 2. It is filed as functional, cell-based.
Experiment [6] concerns the target T1, Thymidylate synthase. The experiment is described as follows: Compound was evaluated for the inhibition of Thymidylate synthase in experiment 1.
The subject of experiment [7] is L1210. The experiment in a line: Compound was evaluated for the growth inhibition of mouse L1210 cells in experiment 1. In kind it is functional, cell-based.

By IC50 is commonly meant the midpoint of a concentration-inhibition curve. A high value points to lower potency.

`C#CCN(Cc1ccc2nc(C)nc(O)c2c1)c1ccc(C(=O)N[C@@H](CCC(=O)N[C@H](CCC(=O)O)C(=O)O)C(=O)O)cc1`: the IC50 in the experiment on L1210 [1] (Mus musculus, L1210) is 330 nM; in the experiment on L1210 [2], 15000 nM; in the experiment on L1210 (1565), 16000 nM.

As to `C#CCN(Cc1cc2c(O)nc(C)nc2cc1C)c1ccc(C(=O)N[C@@H](CCC(=O)N[C@@H](C)c2nnn[nH]2)C(=O)O)c(F)c1`, the IC50 with L1210 [1] (Mus musculus, L1210) was determined as 350 nM; in the experiment with L1210 [1] (l1210), 260 nM; with L1210 [2] it was 2000 nM; in the experiment on L1210 (1565), 1000 nM; against Thymidylate synthase [3] it was 1 nM.

For `C#CCN(Cc1cc2c(O)nc(C)nc2cc1C)c1ccc(C(=O)N[C@@H](CCC(=O)N[C@@H](CCc2nnn[nH]2)C(=O)O)C(=O)O)c(F)c1`, the IC50 on Thymidylate synthase [4] came out at 1.86 nM; in the experiment on L1210 [5], 750 nM; against Thymidylate synthase [6], 0.82 nM; in the experiment with L1210 [2], 8000 nM; in the experiment on L1210 [7], 1500 nM; in the experiment on L1210 (1565) it was 7400 nM.

Turning to `C#CCN(Cc1ccc2nc(C)[nH]c(=O)c2c1)c1ccc(C(=O)N[C@@H](CCC(=O)N[C@@H](CCc2nnn[nH]2)C(=O)O)C(=O)O)cc1`, the IC50 against Thymidylate synthase [4] amounted to 4 nM; in the experiment with L1210 [5], 4900 nM; against Thymidylate synthase [6], 6 nM; with L1210 [2], 44000 nM; in the experiment on L1210 [7], 6200 nM; in the experiment on L1210 (1565), 41000 nM.

For `C#CCN(Cc1cc2c(=O)[nH]c(C)nc2cc1C)c1ccc(C(=O)N[C@@H](CCC(=O)NC(CCC(=O)O)C(=O)O)C(=O)O)c(F)c1` (stereo in doubt), the IC50 against Thymidylate synthase [4] amounted to 0.92 nM; against Thymidylate synthase [6] it was 0.4 nM; in the experiment on L1210 [1] (Mus musculus, L1210), 200 nM; in the experiment with L1210 [2] it was 6800 nM; with L1210 (1565) it was 8700 nM.
